According to patent US20260062443A1 (ALEXION PHARMACEUTICALS, INC., priority 2022, published 2026):

Target: T1, Human complement C1s enzyme (Homo sapiens, UniProt P09871)
T1 sequence (P09871 438-688 limits assumed): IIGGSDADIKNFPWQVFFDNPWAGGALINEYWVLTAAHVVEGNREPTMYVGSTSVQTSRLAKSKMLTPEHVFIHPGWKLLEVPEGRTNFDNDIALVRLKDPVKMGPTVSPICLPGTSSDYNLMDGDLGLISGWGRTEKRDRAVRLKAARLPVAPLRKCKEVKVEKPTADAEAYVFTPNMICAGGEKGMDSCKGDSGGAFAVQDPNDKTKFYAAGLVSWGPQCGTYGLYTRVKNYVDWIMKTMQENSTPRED
T1 sequence (P09871 16-437 partner limits assumed): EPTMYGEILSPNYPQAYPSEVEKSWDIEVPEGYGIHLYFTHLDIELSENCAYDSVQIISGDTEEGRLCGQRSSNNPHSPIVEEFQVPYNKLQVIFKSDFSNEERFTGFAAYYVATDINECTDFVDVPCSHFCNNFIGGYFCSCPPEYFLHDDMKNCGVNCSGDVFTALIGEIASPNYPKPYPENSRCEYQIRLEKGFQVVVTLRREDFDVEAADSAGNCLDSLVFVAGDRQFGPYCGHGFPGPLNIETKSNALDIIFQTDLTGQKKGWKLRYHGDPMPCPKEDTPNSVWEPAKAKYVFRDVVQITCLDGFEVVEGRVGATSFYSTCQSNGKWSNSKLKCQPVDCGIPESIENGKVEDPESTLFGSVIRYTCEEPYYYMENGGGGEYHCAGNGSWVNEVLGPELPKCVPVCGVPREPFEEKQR
Test: Human C1s enzyme assay
Type: biochemical
Details: human complement C1s enzyme 1.16 nM, substrate Z-L-Lys-SBzl 100 μM, 5 min preincubation; read-out: IC50 (Stars), C1s Inhibiting Activity
In short: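 IC50 from nonlinear regression of reaction rates versus compound concentration, with rates taken from A405 recorded at 30 s intervals over 30 min after adding 100 μM Z-L-Lys-SBzl plus 100 μM DTNB. Enzyme was human C1s purified from serum, 1.16 nM, given 5 min compound preincubation at room temperature, pH 7.5 Tris/1 M NaCl.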

SMILES	IC50 [nM]
C[C@@H](NC(=O)[C@@H]1C[C@]2(C)C[C@@H]2N1C(=O)CN1Cc2cc(-c3ccc(F)cc3F)ccc2C1=O)c1cc2cnccc2[nH]1 [Compound 113, (1S,3S,5S)-N-((R)-1-(1H-pyrrolo[3,2-c]pyridin-2-yl)ethyl)-2-(2-(5-(2,4-difluorophenyl)-1-oxoisoindolin-2-yl)acetyl)-5-methyl-2-azabicyclo[3.1.0]hexane-3-carboxamide]	< 100
C[C@@H](NC(=O)[C@@H]1CC2(CN1C(=O)CNC(=O)c1ccc(-c3ccccc3)cn1)OCCO2)c1cc2cnccc2[nH]1 [Compound 114, (S)-N-((R)-1-(1H-pyrrolo[3,2-c]pyridin-2-yl)ethyl)-7-((5-phenylpicolinoyl)glycyl)-1,4-dioxa-7-azaspiro[4.4]nonane-8-carboxamide]	100 to 1000
Cc1ccc(-c2cnc(C(=O)NCC(=O)N3CC4(C[C@H]3C(=O)N[C@H](C)c3cc5cnccc5[nH]3)OCCO4)c(F)c2)cc1 [Compound 115, (S)-N-((R)-1-(1H-pyrrolo[3,2-c]pyridin-2-yl)ethyl)-7-((3-fluoro-5-(p-tolyl)picolinoyl)glycyl)-1,4-dioxa-7-azaspiro[4.4]nonane-8-carboxamide]	> 1000
C[C@@H](NC(=O)[C@@H]1C[C@]2(C)C[C@@H]2N1C(=O)CN1Cc2cc(-c3ccc(F)cc3)ccc2C1=O)c1cc2cnccc2[nH]1 [Compound 116, (1S,3S,5S)-N-((R)-1-(1H-pyrrolo[3,2-c]pyridin-2-yl)ethyl)-2-(2-(5-(4-fluorophenyl)-1-oxoisoindolin-2-yl)acetyl)-5-methyl-2-azabicyclo[3.1.0]hexane-3-carboxamide]	> 1000
O=C(NCC(=O)N1CC2(C[C@H]1C(=O)NCc1cc3cnccc3[nH]1)OCCO2)c1ccc(-c2ccc(F)cc2F)cc1 [Compound 117, (S)-N-((1H-pyrrolo[3,2-c]pyridin-2-yl)methyl)-7-((2′,4′-difluoro-[1,1′-biphenyl]-4-carbonyl)glycyl)-1,4-dioxa-7-azaspiro[4.4]nonane-8-carboxamide]	100 to 1000
O=C(NCC(=O)N1C[C@H](OC(F)F)C[C@H]1C(=O)O)c1ccc(Oc2ccccc2)cc1 [Compound 118, (2S,4R)-4-(difluoromethoxy)-1-((4-phenoxybenzoyl)glycyl) pyrrolidine-2-carboxylic acid]	> 1000
O=C(NCC(=O)N1CC2(C[C@H]1C(=O)O)OCCO2)c1ccc(Oc2ccccc2)cc1 [Compound 119, (S)-7-((4-phenoxybenzoyl)glycyl)-1,4-dioxa-7-azaspiro[4.4]nonane-8-carboxylic acid]	> 1000
O=C(NCc1cc2cnccc2[nH]1)[C@@H]1CC2(CN1C(=O)CN1Cc3cc(-c4ccc(F)cc4F)ccc3C1=O)OCCO2 [Compound 120, (S)-N-((1H-pyrrolo[3,2-c]pyridin-2-yl)methyl)-7-(2-(5-(2,4-difluorophenyl)-1-oxoisoindolin-2-yl)acetyl)-1,4-dioxa-7-azaspiro[4.4]nonane-8-carboxamide]	< 100
O=C(NCc1cc2cnccc2[nH]1)[C@@H]1CC2(CN1C(=O)CN1Cc3cc(-c4ccc(F)cc4)ccc3C1=O)OCCO2 [Compound 121, (S)-N-((1H-pyrrolo[3,2-c]pyridin-2-yl)methyl)-7-(2-(5-(4-fluorophenyl)-1-oxoisoindolin-2-yl)acetyl)-1,4-dioxa-7-azaspiro[4.4]nonane-8-carboxamide]	100 to 1000
C[C@@H](NC(=O)[C@@H]1CC2(CN1C(=O)CN1Cc3cc(-c4ccc(F)cc4F)ccc3C1=O)OCCO2)c1cc2cnccc2[nH]1 [Compound 122, (S)-N-((R)-1-(1H-pyrrolo[3,2-c]pyridin-2-yl)ethyl)-7-(2-(5-(2,4-difluorophenyl)-1-oxoisoindolin-2-yl)acetyl)-1,4-dioxa-7-azaspiro[4.4]nonane-8-carboxamide]	100 to 1000
C[C@@H](NC(=O)[C@@H]1CC2(CN1C(=O)CN1Cc3cc(-c4ccc(F)cc4)ccc3C1=O)OCCO2)c1cc2cnccc2[nH]1 [Compound 123, (S)-N-((R)-1-(1H-pyrrolo[3,2-c]pyridin-2-yl)ethyl)-7-(2-(5-(4-fluorophenyl)-1-oxoisoindolin-2-yl)acetyl)-1,4-dioxa-7-azaspiro[4.4]nonane-8-carboxamide]	100 to 1000
C[C@@H](NC(=O)[C@@H]1C[C@@H](OC(F)F)CN1C(=O)CN1Cc2cc(-c3ccc(F)cc3Cl)ccc2C1=O)c1cc2cnccc2[nH]1 [Compound 124, (2S,4R)-N-((R)-1-(1H-pyrrolo[3,2-c]pyridin-2-yl)ethyl)-1-(2-(5-(2-chloro-4-fluorophenyl)-1-oxoisoindolin-2-yl)acetyl)-4-(difluoromethoxy)pyrrolidine-2-carboxamide]	< 100
O=C(NCc1cc2cnccc2[nH]1)[C@@H]1CC2(CN1C(=O)CN1Cc3ccc(-c4ccc(F)cc4F)cc3C1=O)OCCO2 [Compound 125, (S)-N-((1H-pyrrolo[3,2-c]pyridin-2-yl)methyl)-7-(2-(6-(2,4-difluorophenyl)-1-oxoisoindolin-2-yl)acetyl)-1,4-dioxa-7-azaspiro[4.4]nonane-8-carboxamide]	< 100
C[C@@H](NC(=O)[C@@H]1CC2(CN1C(=O)CN1Cc3ccc(-c4ccc(F)cc4F)cc3C1=O)OCCO2)c1cc2cnccc2[nH]1 [Compound 126, (S)-N-((R)-1-(1H-pyrrolo[3,2-c]pyridin-2-yl)ethyl)-7-(2-(6-(2,4-difluorophenyl)-1-oxoisoindolin-2-yl)acetyl)-1,4-dioxa-7-azaspiro[4.4]nonane-8-carboxamide]	< 100
O=C(NCC(=O)N1C[C@H](OC(F)F)C[C@H]1C(=O)NCc1cc2cnccc2[nH]1)c1cccc(Oc2ccccc2)c1 [Compound 127, (2S,4R)-N-((1H-pyrrolo[3,2-c]pyridin-2-yl)methyl)-4-(difluoromethoxy)-1-((3-phenoxybenzoyl)glycyl)pyrrolidine-2-carboxamide]	< 100
O=C(NCC(=O)N1C[C@H](OC(F)F)C[C@H]1C(=O)N[C@@H](CO)c1cc2cnccc2[nH]1)c1ccc2c(c1)-c1ccccc1C2(F)F [Compound 128, (2S,4R)-1-((9,9-difluoro-9H-fluorene-3-carbonyl)glycyl)-4-(difluoromethoxy)-N-((R)-2-hydroxy-1-(1H-pyrrolo[3,2-c]pyridin-2-yl)ethyl) pyrrolidine-2-carboxamide]	> 1000
C[C@@]12C[C@@H]1N(C(=O)CN1Cc3cc(-c4ccc(F)cc4F)ccc3C1=O)[C@H](C(=O)NCc1cc3cnccc3[nH]1)C2 [Compound 129, (1S,3S,5S)-N-((1H-pyrrolo[3,2-c]pyridin-2-yl)methyl)-2-(2-(5-(2,4-difluorophenyl)-1-oxoisoindolin-2-yl)acetyl)-5-methyl-2-azabicyclo[3.1.0]hexane-3-carboxamide]	< 100
C[C@@H](NC(=O)[C@@H]1C[C@]2(C)C[C@@H]2N1C(=O)CNC(=O)c1ccc2c(c1)Oc1ccccc1S2)c1cc2cnccc2[nH]1 [Compound 130, (1S,3S,5S)-N-((R)-1-(1H-pyrrolo[3,2-c]pyridin-2-yl)ethyl)-5-methyl-2-((phenoxathiine-3-carbonyl)glycyl)-2-azabicyclo[3.1.0]hexane-3-carboxamide]	< 100
C[C@@H](NC(=O)[C@@H]1CC2(CCCC2)CN1C(=O)CNC(=O)c1ccc2c(c1)Oc1ccccc1S2)c1cc2cnccc2[nH]1 [Compound 131, (S)-N-((R)-1-(1H-pyrrolo[3,2-c]pyridin-2-yl)ethyl)-2-((phenoxathiine-3-carbonyl)glycyl)-2-azaspiro[4.4]nonane-3-carboxamide]	< 100
COC[C@H]1C[C@@H](C(=O)N[C@H](C)c2cc3cnccc3[nH]2)N(C(=O)CNC(=O)c2ccc3c(c2)Oc2ccccc2S3)C1 [Compound 132, (2S,4S)-N-((R)-1-(1H-pyrrolo[3,2-c]pyridin-2-yl)ethyl)-4-(methoxymethyl)-1-((phenoxathiine-3-carbonyl)glycyl)pyrrolidine-2-carboxamide]	< 100
CC(C)S(=O)(=O)[C@@H]1C[C@@H](C(=O)N[C@H](C)c2cc3cnccc3[nH]2)N(C(=O)CNC(=O)c2ccc3c(c2)Oc2ccccc2S3)C1 [Compound 133, (2S,4R)-N-((R)-1-(1H-pyrrolo[3,2-c]pyridin-2-yl)ethyl)-4-(isopropylsulfonyl)-1-((phenoxathiine-3-carbonyl)glycyl)pyrrolidine-2-carboxamide]	< 100
C[C@@H](NC(=O)[C@@H]1C[C@@H](OC(F)F)CN1C(=O)CNC(=O)c1cccc2c1-c1ccccc1C2(F)F)c1cc2cnccc2[nH]1 [Compound 134, (2S,4R)-N-((R)-1-(1H-pyrrolo[3,2-c]pyridin-2-yl)ethyl)-1-((9,9-difluoro-9H-fluorene-4-carbonyl)glycyl)-4-(difluoromethoxy)pyrrolidine-2-carboxamide]	> 1000
